How the values were obtained:
Assay type in all cases: cell-based, Chinese Hamster
[1] = test system: Cell Line 1; test: Shake flask fedbatch culture of Cell Line 1 (Antibody 1), cell culture performance (Example 2); conditions: for Antibody 1 harvest titer: 1, 10, 30, 50, 70 mM vs control
Method: Two recombinant Chinese Hamster Ovary (CHO) cell lines expressing two different recombinant glycoproteins were evaluated in two different cultures vessels (shaker flasks and 3 L laboratory scale bioreactors). Cell Line 1 expressed Antibody 1, Cell Line 2 expressed Dual Variable Domain Immunoglobulin 1 (DVD 1) and Cell Line 3 expressed Antibody 2. Antibodies 1 and 2 are IgG1 proteins, and DVD 1 is an immunoglobulin with two variable domains as documented previously (Wu C. et al., (2007) Nat. Biotechnol 25(11):1290-1297). All cell lines were of CHO DUX-B11 origin based on a dhfr (dihydrofolate reductase) expression system. All cell lines were cultured in the same chemically defined basal media. Cell lines 1 and 2 were fed with the same chemically-defined feed media, but Cell Line 1 was fed media that was formulated at a 50% higher concentration. Each of the respective media were supplemented with either sucrose or tagatose to evaluate their potential impact on the resulting N-glycan oligosaccharide profile. All sugars were purchased from Sigma-Aldrich (St. Louis, Mo.). In preparation of the cultures, the cell lines were serially expanded through separate seed train inoculums to generate enough cells for inoculation. […] [table] Viable cell density (VCD) and cell viability values were measured through trypan blue exclusion via Cedex automated cell counters (Roche Applied Science, Indianapolis, Ind.), glucose and lactate values were measured with a ABL-805 (Radiometer Medical, Denmark) blood gas analyzer. Offline pH, dissolved oxygen (DO), and pCO2 measurements were performed with an ABL-805 (Radiometer Medical, Denmark) blood gas analyzer. Osmolality was measured on a Multi-Osmette 2430 osmometer (Precision Systems, Natick, Mass.). Antibody titers were measured from crude cell culture harvests on a Poros A™ (Life Technologies, Carlsbad, Calif.) affinity column using an Agilent (Santa Clara, Calif.) 1200 Series HPLC, or equivalent, operating with a low pH, step elution gradient with detection at 280 nm. Absolute concentrations were assigned with respect to reference standard calibration curves. Experimental results are expressed as mean±SD for those results generated from at least three independent cultures. Experimental results are expressed as the measured value for those results generated from less than three independent cultures. Results were evaluated for statistical significance through 2-sided t-tests, with a requirement of p<0.05 relative to the unsupplemented control conditions. Cell Line 1 was cultured in shake flasks in fedbatch mode after an abbreviated seed train. Sucrose and tagatose were supplemented into chemically-defined basal and feed media at concentrations of 1, 10, 30, 50, and 70 mM, and compared to unsupplemented control conditions. The viable cell density (VCD), viability, and harvest titer results are shown in FIGS. 13A-13C for the sucrose supplemented cultures and FIGS. 14A-14C for the tagatose supplemented cultures.

[2] = test system: Cell Line 2; test: N-glycan oligosaccharide profiling, Cell Line 2 shake flasks (Example 1); conditions: 30 mM supplement vs control
Method: (§1) Two recombinant Chinese Hamster Ovary (CHO) cell lines expressing two different humanized monoclonal antibodies (Antibody 1, Antibody 2) were evaluated in two different culture vessels (shaker flasks and laboratory scale bioreactors). Both cell lines were of CHO DUX-B11 origin based on a dhfr (dihydrofolate reductase) expression system. Both cell lines were cultured in the same chemically defined basal media (CDBM), with Cell Line 1 also utilizing a chemically-defined feed media (CDFM). Each of the respective media were supplemented with selected monosaccharides and oligosaccharides to evaluate their potential impact on the resulting N-glycan oligosaccharide profile. In preparing the cultures, the cell lines were serially expanded through separate seed train inoculums to generate enough cells for inoculation.
(§2) Purified antibodies subjected to additional analytical characterization were purified using MabSelect™ Protein A (GE Healthcare, Piscataway, N.J.) using a low pH, step elution gradient, followed by buffer exchange using Corning Lifesciences (Tewksbury, Mass.) Spin Concentrator X UF columns according to the manufacturers' recommended procedures.
(§3) Approximately 200 μg of Protein A purified samples from Cell Lines 1 and 2 were treated with N-glycanase at 37° C. overnight to remove the N-glycans from the protein. The protein was precipitated and the supernatant was taken for subsequent chemical derivatization of the reducing end of the released glycans with 2-aminobenzamide (2-AB) dye. Following the derivatization step, the excess label was removed using clean up cartridges and the samples were analyzed using normal phase HPLC with fluorescent detection. Mobile phase A was 100% acetonitrile and mobile phase B was 50 mM ammonium formate pH 4.4. The glycans were eluted from a polyamide column (Prozyme, Hayward, Calif.) using a shallow gradient. The labeled glycans were detected using a fluorescence detector with an excitation wavelength of 330 nm and an emission wavelength of 420 nm.
Cell Line 2 was evaluated in shake flask culture in semi-fedbatch mode. Sucrose was supplemented into the basal media at various concentrations to evaluate the resulting impact on cell culture performance, as well as the protein glycosylation profile. On average, 7 mM, 15 mM, and 30 mM sucrose all nominally impacted overall cell growth, with only slight drops in peak viable cell density (1×10^6-2×10^6 cells/mL) as compared to the unsupplemented control. […] There was however, a very significant impact on the protein glycosylation profiles of harvest samples across all sucrose concentrations evaluated (FIG. 12). A concentration-dependent modulation of protein glycosylation was observed that was consistent with the results obtained for Cell Line 1.

[3] = test system: Cell Line 1; test: N-glycan oligosaccharide profiling, Cell Line 1 shake flasks (Example 1)
Method: as §1, §2, §3
Cell Line 1 was cultured in shake flasks in fedbatch mode after an abbreviated seed train. Sucrose and tagatose were supplemented into chemically-defined basal and feed media at concentrations of 30, 50, and 70 mM, and compared to an unsupplemented control condition. The viable cell density (VCD), viability, and harvest titer results are shown in FIGS. 3A-3C and FIGS. 5A-5C for the sucrose, and tagatose conditions, respectively. Both sugars facilitated a slight decrease in VCD, with the higher concentrations also supporting the lowest peak VCD. […] As such, the upper threshold of sucrose or tagatose concentration should not be exceeded.

[4] = test system: Cell Line 2; test: Shake flask semi-fedbatch culture of Cell Line 2, cell culture performance (Example 1); conditions: 7 mM
Method: as §1
Viable cell density (VCD) and cell viability values were measured through trypan blue exclusion via Cedex automated cell counters (Roche Applied Science, Indianapolis, Ind.), glucose and lactate values were measured with a ABL-805 (Radiometer Medical, Denmark) blood gas analyzer. Offline pH, dissolved oxygen (DO), and pCO2 measurements were performed with a ABL-805 (Radiometer Medical, Denmark) blood gas analyzer. Osmolality was measured on a Multi-Osmette 2430 osmometer (Precision Systems, Natick, Mass.).
Antibody titers were measured from crude cell culture harvests on a Poros A™ (Life Technologies, Carlsbad, Calif.) affinity column using an Agilent (Santa Clara, Calif.) 1200 Series HPLC, or equivalent, operating with a low pH, step elution gradient with detection at 280 nm. Absolute concentrations were assigned with respect to reference standard calibration curves.
Cell Line 2 was evaluated in shake flask culture in semi-fedbatch mode. Sucrose was supplemented into the basal media at various concentrations to evaluate the resulting impact on cell culture performance, as well as the protein glycosylation profile. […] There was however, a very significant impact on the protein glycosylation profiles of harvest samples across all sucrose concentrations evaluated (FIG. 12). […]

[5] = 70 mM supplement, absolute % change vs control

In the case of `OC[C@H]1O[C@@](CO)(O[C@H]2O[C@H](CO)[C@@H](O)[C@H](O)[C@H]2O)[C@@H](O)[C@@H]1O` [sucrose], the “peak VCD” value ([1]; 50 mM and 70 mM) is reported as “reduction in peak VCD”, the “increase in harvest titer” value ([1]; 50 mM vs control) is reported as 2% and the “Antibody 1 harvest titer” value [1] is reported as “essentially indistinguishable from the control conditions”. For the same compound, the “viable cell density over time” value ([1]; 1, 10 and 30 mM) was “remained essentially the same”, the “cell viability after process day 10” value ([1]; 10, 30, 50 and 70 mM) was “died slower than the control” and the “cumulative increase in overall mannosylated N-glycans” value (from here on “cumulative increase”) [2] was 19%. The “drop in NGA2F species” value [2] was 27%, the “drop in overall fucosylation” value [2] was 19% and the “increase in Man 5 species” value [2] was at most 17%. For the same compound, the “increase in Man 6 species” value [2] was 1%, the “increase in Man 7 species” value [2] was 1% and the “cumulative increase” value ([3]; 70 mM supplement vs control) was 43%. For the same compound, the “decrease in NGA2F species” value ([3]; 70 mM supplement vs control) was 51%, the “increase in NGA2F-GlcNAc species” value ([3]; 70 mM supplement vs control) was 7% and the “overall decrease in fucosylation level” value ([3]; 70 mM supplement vs control) was 44%. For the same compound, the “increase in Man 5 species” value [3, 5] was 24%, the “increase in Man 6 species” value [3, 5] was 12% and the “increase in Man 7 species” value [3, 5] was 7%. For the same compound, the cell viability ([4]; 15 mM and 30 mM) was “not significantly different from each other”, the harvest titer ([4]; 15 mM and 30 mM) was “not significantly different from each other” and the “drop in peak viable cell density” value ([4]; 15 mM and 30 mM vs control) was 1×10^6-2×10^6 cells/mL.

`O=C(CO)[C@@H](O)[C@@H](O)[C@H](O)CO` [tagatose] was tested, and the “viable cell density over time” value ([1]; 1 mM and 10 mM) was “remained similar or higher”, the “decrease in harvest titer” value ([1]; 70 mM vs control) was 9% and the “Antibody 1 harvest titer” value [1] was “essentially indistinguishable”. For the same compound, the “cell viability after process day 10” value ([1]; 30, 50 and 70 mM) was “died slower than the control”, the “peak VCD” value ([1]; 30, 50 and 70 mM) was “reduction in peak VCD” and the “cumulative increase” value ([3]; 70 mM supplement vs control) was 20%. The “decrease in NGA2F species” value ([3]; 70 mM supplement vs control) was 30%, the “overall decrease in fucosylation level” value ([3]; 70 mM supplement vs control) was 23% and the “increase in Man 5 species” value [3, 5] was at most 10%. The “increase in Man 6 species” value [3, 5] was 6%, the “increase in Man 7 species” value [3, 5] was 3% and the “increase in Man 8 species” value [3, 5] was 1%.

— patent US9499614B2, “Methods for modulating protein glycosylation profiles of recombinant protein therapeutics using monosaccharides and oligosaccharides” (AbbVie, Inc., priority 2013, dated 2016)
